Results taken from PMC7736581, “Activation of the IRE1 RNase through remodeling of the kinase front pocket by ATP-competitive ligands” (Nature Communications, 2020).

Key:
Experiment in all cases: biochemical
Design in all cases: Invitrogen kinase panel: Z'Lyte activity (ATP at Km) or LanthaScreen competitive ATP-site binding, percent inhibition
[1] = molecular target: BrSK1 (Homo sapiens, UniProt Q8TDC3)
[2] = molecular target: CLK4 (Homo sapiens, UniProt Q9HAZ1)
[3] = molecular target: T1, CamKII_alpha (Homo sapiens, UniProt Q9UQM7)
T1 construct: gene CAMK2A

[4] = molecular target: DDR1 (Homo sapiens, UniProt Q08345)
[5] = molecular target: EphA1 (Homo sapiens, UniProt P21709)
[6] = molecular target: GRK2 (Homo sapiens, UniProt P25098)
[7] = molecular target: T2, Hyl (Homo sapiens, UniProt P42679)
T2 construct: gene MATK

[8] = molecular target: T3, IKK_alpha (Homo sapiens, UniProt O15111)
T3 construct: gene CHUK

[9] = molecular target: T4, JNK1_alpha1 (Homo sapiens, UniProt P45983)
T4 construct: gene MAPK8; isoform alpha1
T4 sequence (P45983 whole entry, canonical isoform): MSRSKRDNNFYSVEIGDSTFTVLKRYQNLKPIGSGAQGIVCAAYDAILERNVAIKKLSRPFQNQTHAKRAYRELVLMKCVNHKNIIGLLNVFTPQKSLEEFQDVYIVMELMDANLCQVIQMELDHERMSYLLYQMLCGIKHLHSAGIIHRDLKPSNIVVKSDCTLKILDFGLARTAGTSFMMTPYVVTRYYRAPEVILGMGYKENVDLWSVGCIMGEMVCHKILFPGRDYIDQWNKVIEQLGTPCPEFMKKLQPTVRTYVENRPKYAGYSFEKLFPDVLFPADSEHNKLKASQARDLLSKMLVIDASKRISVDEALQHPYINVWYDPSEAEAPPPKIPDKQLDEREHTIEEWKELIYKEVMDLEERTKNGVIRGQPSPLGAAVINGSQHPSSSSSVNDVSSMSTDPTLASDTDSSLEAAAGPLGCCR

[10] = molecular target: T5, KHS1 (Homo sapiens, UniProt Q9Y4K4)
T5 construct: gene MAP4K5
T5 sequence (Q9Y4K4 whole entry): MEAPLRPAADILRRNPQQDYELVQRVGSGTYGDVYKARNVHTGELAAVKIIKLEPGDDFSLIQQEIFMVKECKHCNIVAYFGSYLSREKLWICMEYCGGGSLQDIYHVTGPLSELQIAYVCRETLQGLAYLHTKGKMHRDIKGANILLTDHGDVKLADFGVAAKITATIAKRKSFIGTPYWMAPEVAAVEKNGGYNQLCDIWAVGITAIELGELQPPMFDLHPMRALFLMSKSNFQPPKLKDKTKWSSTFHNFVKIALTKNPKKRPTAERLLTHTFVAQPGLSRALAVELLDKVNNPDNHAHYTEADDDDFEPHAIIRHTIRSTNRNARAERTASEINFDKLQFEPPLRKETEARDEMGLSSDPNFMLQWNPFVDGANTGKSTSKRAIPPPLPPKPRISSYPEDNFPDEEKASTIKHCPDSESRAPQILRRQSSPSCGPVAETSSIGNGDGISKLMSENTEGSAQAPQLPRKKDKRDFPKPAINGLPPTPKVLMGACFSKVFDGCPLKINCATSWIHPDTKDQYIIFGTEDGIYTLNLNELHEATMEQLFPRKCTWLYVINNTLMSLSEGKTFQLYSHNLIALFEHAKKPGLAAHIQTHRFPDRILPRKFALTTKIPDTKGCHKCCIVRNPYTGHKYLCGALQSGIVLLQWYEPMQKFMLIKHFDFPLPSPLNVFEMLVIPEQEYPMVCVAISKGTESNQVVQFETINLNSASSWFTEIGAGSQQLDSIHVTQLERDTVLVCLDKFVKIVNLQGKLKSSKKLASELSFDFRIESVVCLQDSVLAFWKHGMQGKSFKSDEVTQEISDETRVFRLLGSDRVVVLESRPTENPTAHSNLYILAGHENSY

[11] = molecular target: MAP4K4 (Homo sapiens, UniProt O95819)
[12] = molecular target: MAPKAPK2 (Homo sapiens, UniProt P49137)
MAPKAPK2, sequence (P49137 whole entry): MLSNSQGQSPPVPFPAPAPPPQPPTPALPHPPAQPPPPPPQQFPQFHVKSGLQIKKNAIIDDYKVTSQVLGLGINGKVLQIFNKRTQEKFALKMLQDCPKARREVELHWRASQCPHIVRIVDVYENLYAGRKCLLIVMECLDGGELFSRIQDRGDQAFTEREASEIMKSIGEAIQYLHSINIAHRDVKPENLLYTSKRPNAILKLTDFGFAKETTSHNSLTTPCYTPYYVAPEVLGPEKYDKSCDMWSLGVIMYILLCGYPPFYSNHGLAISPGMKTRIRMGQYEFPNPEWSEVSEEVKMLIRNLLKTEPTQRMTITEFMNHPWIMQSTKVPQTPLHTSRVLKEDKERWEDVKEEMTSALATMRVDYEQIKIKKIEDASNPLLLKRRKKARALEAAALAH

[13] = molecular target: T6, MEKK2 (Homo sapiens, UniProt Q9Y2U5)
T6 construct: gene MAP3K2
T6 sequence (Q9Y2U5 whole entry): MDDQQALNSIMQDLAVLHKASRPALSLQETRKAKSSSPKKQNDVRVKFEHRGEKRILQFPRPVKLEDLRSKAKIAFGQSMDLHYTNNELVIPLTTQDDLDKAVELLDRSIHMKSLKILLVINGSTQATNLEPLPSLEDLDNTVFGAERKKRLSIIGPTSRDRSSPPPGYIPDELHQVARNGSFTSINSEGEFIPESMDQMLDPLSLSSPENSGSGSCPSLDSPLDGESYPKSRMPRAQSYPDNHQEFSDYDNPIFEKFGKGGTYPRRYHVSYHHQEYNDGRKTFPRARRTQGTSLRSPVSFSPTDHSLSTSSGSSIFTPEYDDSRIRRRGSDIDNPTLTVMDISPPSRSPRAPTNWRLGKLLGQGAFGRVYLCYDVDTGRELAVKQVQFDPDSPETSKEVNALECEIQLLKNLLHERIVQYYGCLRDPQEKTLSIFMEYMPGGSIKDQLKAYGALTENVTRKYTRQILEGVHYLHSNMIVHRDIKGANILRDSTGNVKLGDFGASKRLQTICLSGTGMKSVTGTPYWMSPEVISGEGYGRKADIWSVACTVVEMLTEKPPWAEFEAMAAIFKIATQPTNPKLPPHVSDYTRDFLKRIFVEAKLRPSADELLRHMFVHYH

[14] = molecular target: MELK (Homo sapiens, UniProt Q14680)
[15] = molecular target: MKNK2 (Homo sapiens, UniProt Q9HBH9)
MKNK2, sequence (Q9HBH9 whole entry): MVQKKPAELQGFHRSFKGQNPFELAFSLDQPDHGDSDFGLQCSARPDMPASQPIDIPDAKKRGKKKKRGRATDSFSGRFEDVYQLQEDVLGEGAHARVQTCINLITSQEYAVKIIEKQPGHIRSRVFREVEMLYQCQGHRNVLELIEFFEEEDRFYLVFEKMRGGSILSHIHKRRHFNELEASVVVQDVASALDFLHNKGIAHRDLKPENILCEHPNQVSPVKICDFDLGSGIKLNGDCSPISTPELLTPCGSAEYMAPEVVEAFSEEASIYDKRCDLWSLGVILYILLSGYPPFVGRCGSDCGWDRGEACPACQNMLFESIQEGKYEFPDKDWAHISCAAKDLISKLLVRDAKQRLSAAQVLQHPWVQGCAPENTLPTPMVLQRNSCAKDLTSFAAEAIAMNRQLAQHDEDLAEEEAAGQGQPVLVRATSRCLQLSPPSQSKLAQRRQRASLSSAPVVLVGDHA

[16] = molecular target: T7, MRCK_alpha (Homo sapiens, UniProt Q5VT25)
T7 construct: gene CDC42BPA

[17] = molecular target: T8, Mer (Homo sapiens, UniProt Q12866)
T8 construct: gene MERTK

[18] = molecular target: NEK4 (Homo sapiens, UniProt P51957)
[19] = molecular target: NLK (Homo sapiens, UniProt Q9UBE8)
NLK, sequence (Q9UBE8 whole entry): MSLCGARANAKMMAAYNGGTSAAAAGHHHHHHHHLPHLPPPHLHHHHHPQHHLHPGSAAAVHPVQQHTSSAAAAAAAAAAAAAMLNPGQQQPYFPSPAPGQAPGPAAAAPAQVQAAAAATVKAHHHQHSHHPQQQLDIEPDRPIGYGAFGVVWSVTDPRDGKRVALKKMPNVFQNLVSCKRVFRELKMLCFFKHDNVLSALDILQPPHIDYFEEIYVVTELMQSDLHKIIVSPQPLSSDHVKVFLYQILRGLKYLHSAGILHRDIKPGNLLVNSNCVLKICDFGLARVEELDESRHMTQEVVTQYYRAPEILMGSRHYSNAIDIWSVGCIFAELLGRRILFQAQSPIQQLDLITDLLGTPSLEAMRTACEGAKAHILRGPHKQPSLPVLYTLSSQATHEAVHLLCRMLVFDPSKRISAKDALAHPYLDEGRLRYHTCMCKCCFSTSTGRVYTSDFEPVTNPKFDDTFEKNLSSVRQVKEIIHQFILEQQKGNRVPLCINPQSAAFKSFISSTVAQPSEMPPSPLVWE

[20] = molecular target: PAK4 (Homo sapiens, UniProt O96013)
[21] = molecular target: PLK3 (Homo sapiens, UniProt Q9H4B4)
PLK3, sequence (Q9H4B4 whole entry): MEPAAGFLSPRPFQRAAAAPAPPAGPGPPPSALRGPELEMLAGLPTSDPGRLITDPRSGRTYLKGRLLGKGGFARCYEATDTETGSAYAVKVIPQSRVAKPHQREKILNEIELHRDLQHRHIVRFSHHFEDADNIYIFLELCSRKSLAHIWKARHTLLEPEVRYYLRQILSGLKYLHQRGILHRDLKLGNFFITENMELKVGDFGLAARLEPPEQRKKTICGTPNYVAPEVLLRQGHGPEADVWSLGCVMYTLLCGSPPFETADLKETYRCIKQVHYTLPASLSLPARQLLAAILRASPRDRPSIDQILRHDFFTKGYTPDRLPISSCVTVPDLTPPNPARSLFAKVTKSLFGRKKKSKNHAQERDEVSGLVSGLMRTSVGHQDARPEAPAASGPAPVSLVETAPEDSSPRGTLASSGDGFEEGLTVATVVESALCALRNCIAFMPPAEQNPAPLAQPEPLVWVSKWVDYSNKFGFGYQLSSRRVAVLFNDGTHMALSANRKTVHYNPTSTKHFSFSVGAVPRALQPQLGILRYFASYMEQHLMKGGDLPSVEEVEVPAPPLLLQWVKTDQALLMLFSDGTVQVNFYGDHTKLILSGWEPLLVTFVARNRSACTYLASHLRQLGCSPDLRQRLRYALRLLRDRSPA

[22] = molecular target: T9, PRAK (Homo sapiens, UniProt Q8IW41)
T9 construct: gene MAPKAPK5

[23] = molecular target: Ret (Homo sapiens, UniProt P07949)
Ret, sequence (P07949 whole entry): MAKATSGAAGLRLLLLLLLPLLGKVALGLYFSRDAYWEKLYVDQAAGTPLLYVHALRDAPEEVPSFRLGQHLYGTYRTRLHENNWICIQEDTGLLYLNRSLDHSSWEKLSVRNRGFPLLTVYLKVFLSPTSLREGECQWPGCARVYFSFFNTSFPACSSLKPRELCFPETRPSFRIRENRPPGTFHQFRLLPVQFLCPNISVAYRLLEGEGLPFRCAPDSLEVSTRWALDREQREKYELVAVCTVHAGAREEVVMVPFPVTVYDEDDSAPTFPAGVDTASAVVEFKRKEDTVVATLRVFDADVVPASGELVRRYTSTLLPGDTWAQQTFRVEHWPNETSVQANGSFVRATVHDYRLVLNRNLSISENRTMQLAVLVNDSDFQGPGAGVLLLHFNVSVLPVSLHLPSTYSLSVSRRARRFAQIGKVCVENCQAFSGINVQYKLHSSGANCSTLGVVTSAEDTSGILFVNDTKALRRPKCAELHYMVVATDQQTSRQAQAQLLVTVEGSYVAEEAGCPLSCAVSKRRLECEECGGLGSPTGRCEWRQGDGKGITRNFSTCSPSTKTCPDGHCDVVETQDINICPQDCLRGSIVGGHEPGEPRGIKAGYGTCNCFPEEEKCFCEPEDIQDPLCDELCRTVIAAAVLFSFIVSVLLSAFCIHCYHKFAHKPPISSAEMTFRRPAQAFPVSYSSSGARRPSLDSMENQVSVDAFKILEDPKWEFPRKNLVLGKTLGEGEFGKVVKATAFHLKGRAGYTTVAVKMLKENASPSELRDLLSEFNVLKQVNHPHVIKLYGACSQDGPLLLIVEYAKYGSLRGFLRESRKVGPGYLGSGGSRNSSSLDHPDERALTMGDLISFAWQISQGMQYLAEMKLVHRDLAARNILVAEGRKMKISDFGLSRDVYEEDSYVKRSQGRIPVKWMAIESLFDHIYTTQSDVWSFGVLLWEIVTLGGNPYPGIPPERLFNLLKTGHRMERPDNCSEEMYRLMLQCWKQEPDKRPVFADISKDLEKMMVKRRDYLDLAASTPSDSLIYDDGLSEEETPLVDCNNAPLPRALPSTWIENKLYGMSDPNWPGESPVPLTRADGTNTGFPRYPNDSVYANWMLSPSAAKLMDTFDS

[24] = molecular target: SGK1 (Homo sapiens, UniProt O00141)
[25] = molecular target: STK16 (Homo sapiens, UniProt O75716)

SMILES: CC#CC(=O)Nc1cccc2c(Oc3ncccc3-c3ccnc(N[C@H]4CCCNC4)n3)c(C)ccc12 [G-7658]
- inhibition at 1 µM [1]: 4.5%
- inhibition at 1 µM [2]: 6%
- inhibition at 1 µM [3]: -16%
- inhibition at 1 µM [4]: 29%
- inhibition at 1 µM [5]: 6%
- inhibition at 1 µM [6]: 1%
- inhibition at 1 µM [7]: 6.5%
- inhibition at 1 µM [8]: -2%
- inhibition at 1 µM [9]: 72.5%
- inhibition at 1 µM [10]: 18%
- inhibition at 1 µM [11]: 21.5%
- inhibition at 1 µM [12]: 1%
- inhibition at 1 µM [13]: 1%
- inhibition at 1 µM [14]: 19.5%
- inhibition at 1 µM [15]: -2%
- inhibition at 1 µM [16]: 5%
- inhibition at 1 µM [17]: 4.5%
- inhibition at 1 µM [18]: 5.5%
- inhibition at 1 µM [19]: 19%
- inhibition at 1 µM [20]: 0%
- inhibition at 1 µM [21]: -2.5%
- inhibition at 1 µM [22]: -1%
- inhibition at 1 µM [23]: 8%
- inhibition at 1 µM [24]: 3.5%
- inhibition at 1 µM [25]: -9%

SMILES: CCOC(=O)Nc1cccc2c(Oc3ncccc3-c3ccnc(N[C@H]4CCCNC4)n3)c(C)ccc12 [G-1749]
- inhibition at 1 µM [1]: 6.5%
- inhibition at 1 µM [2]: 10.5%
- inhibition at 1 µM [3]: -17.5%
- inhibition at 1 µM [4]: 46%
- inhibition at 1 µM [5]: 7%
- inhibition at 1 µM [6]: 2%
- inhibition at 1 µM [7]: 6.5%
- inhibition at 1 µM [8]: -3.5%
- inhibition at 1 µM [9]: 53.5%
- inhibition at 1 µM [10]: 29.5%
- inhibition at 1 µM [11]: 31%
- inhibition at 1 µM [12]: 7.5%
- inhibition at 1 µM [13]: -0.5%
- inhibition at 1 µM [14]: 33%
- inhibition at 1 µM [15]: 3.5%
- inhibition at 1 µM [16]: 4.5%
- inhibition at 1 µM [17]: 4.5%
- inhibition at 1 µM [18]: 6%
- inhibition at 1 µM [19]: 13%
- inhibition at 1 µM [20]: 0%
- inhibition at 1 µM [21]: -5%
- inhibition at 1 µM [22]: 0.5%
- inhibition at 1 µM [23]: 10%
- inhibition at 1 µM [24]: 5.5%
- inhibition at 1 µM [25]: -5.5%
